# Measurements published in ChEMBL document CHEMBL1152774, “Inhibition of Trypanosoma brucei glucose-6-phosphate dehydrogenase by human steroids and their effects on the viability of cultured parasites” (Bioorg Med Chem, 2009).
# pKi: −log10 of the molar value. The source made the active and inactive calls. No cut-off for these calls is given here.
# Legend:
# [1] = target: T1, Glucose-6-phosphate 1-dehydrogenase (Trypanosoma brucei, UniProt Q9GRG7); assay: Inhibition of Trypanosoma brucei G6PDH using glucose-6-phosphate as substrate by Lineweaver-Burke plot
# T1 sequence (Q9GRG7 whole entry): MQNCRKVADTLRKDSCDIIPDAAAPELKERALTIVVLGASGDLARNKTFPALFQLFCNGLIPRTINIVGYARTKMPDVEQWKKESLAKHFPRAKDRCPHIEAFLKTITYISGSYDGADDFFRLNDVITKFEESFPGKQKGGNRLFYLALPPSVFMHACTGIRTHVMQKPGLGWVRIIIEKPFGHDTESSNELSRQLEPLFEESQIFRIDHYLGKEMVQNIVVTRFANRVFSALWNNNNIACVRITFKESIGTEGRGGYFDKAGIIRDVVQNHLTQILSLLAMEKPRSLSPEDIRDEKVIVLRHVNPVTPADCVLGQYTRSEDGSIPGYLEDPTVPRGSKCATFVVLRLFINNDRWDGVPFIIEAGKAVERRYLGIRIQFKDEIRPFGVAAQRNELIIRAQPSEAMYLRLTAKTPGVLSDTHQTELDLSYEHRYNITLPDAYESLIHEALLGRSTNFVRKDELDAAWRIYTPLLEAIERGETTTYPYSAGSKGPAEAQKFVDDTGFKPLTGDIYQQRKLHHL
# Leishmania mexicana = assay: Antileishmanial activity against Leishmania mexicana early-metacyclic promastigotes up to 96 uM after 48 hrs by MTS assay; format: functional, organism-based
# [2] = target: T2, Glucose-6-phosphate 1-dehydrogenase (Homo sapiens, UniProt P11413); assay: Inhibition of human G6PDH using glucose-6-phosphate as substrate by Lineweaver-Burke plot
# [3] = target: T1, Glucose-6-phosphate 1-dehydrogenase; assay: Inhibition of Trypanosoma brucei G6PDH using NADP as substrate by Lineweaver-Burke plot
# [4] = target: T2, Glucose-6-phosphate 1-dehydrogenase; assay: Inhibition of human G6PDH using NADP as substrate by Lineweaver-Burke plot
# Trypanosoma brucei = assay: Trypanocidal activity against Trypanosoma brucei 427 bloodstream form after 48 hrs by MTS assay; format: functional; details: Trypanosoma brucei, 427, 48 h; read-out: LD50 (the source's name)
# T2 sequence (P11413 whole entry): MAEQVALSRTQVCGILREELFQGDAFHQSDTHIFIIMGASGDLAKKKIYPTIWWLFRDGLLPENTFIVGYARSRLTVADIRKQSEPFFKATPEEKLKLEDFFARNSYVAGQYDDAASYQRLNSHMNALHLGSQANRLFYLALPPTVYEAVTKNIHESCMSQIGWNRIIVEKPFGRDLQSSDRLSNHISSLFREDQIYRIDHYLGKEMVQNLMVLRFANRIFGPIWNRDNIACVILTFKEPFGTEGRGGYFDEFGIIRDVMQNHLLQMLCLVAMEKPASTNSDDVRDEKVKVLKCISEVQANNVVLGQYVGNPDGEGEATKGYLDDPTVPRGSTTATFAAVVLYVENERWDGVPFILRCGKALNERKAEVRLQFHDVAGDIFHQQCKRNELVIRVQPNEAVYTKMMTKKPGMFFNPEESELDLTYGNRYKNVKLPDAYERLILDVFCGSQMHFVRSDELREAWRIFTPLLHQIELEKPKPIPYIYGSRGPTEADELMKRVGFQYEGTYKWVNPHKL
Structure (SMILES),pKi [1],Activity (Leishmania mexicana),pKi [2],pKi [3],pKi [4],LC50 (Trypanosoma brucei) [µM]
C[C@]12CC[C@H](O)C[C@@H]1CC[C@@H]1[C@@H]2CC[C@]2(C)C(=O)CC[C@@H]12 [EPIANDROSTERONE],6.31,inactive,5.47,6.34,5.52,24.5
C[C@]12CC[C@H](O)CC1=CC[C@@H]1[C@@H]2CC[C@]2(C)C(=O)CC[C@@H]12 [PRASTERONE],5.77,inactive,5.05,5.96,5.21,43.8
